Measurements as given in ChEMBL document CHEMBL4330129 (Bioorg Med Chem, 2019).
Values after ≈ are worked out from the molar mass of the structure shown. Active and inactive are the calls of the source. The rule behind the calls is not given here.

Columns and labels:
BACH1/MafK = BACH1/MafK (Homo sapiens, UniProt O14867+O60675); assay: Inhibition of Bach1-Mafk interaction (unknown origin) by luciferase reporter gene based enzyme fragment complementation assay; assay type: protein assay
[1] = (§1) Activation of Keap1/Cul3/Nrf2 in human BEAS2B cells assessed as increase in NQO1 levels measured after 48 hrs; assay type: cell-based; details: BEAS-2B
[2] = Kinetic solubility of the compound at pH 7.4 by CLND method; assay type: physicochemical; details: buffer, read-out: Kinetic_solubility
[3] = system: Kelch-like ECH-associated protein 1 (Homo sapiens), Q14145 [C151S]; assay: Binding affinity to human N-terminal His6-tagged Keap1 C151S mutant (35 to 182 residues) expressed in baculovirus infected Sf9 insect cells assessed as cysteine-compound adduct formation at 15-fold molar excess measured after 1 hr by RP-LC/MS/MS analysis
Sequence of Kelch-like ECH-associated protein 1 (Homo sapiens), Q14145 [C151S] (Q14145 whole entry C151S, the tested form may be a part): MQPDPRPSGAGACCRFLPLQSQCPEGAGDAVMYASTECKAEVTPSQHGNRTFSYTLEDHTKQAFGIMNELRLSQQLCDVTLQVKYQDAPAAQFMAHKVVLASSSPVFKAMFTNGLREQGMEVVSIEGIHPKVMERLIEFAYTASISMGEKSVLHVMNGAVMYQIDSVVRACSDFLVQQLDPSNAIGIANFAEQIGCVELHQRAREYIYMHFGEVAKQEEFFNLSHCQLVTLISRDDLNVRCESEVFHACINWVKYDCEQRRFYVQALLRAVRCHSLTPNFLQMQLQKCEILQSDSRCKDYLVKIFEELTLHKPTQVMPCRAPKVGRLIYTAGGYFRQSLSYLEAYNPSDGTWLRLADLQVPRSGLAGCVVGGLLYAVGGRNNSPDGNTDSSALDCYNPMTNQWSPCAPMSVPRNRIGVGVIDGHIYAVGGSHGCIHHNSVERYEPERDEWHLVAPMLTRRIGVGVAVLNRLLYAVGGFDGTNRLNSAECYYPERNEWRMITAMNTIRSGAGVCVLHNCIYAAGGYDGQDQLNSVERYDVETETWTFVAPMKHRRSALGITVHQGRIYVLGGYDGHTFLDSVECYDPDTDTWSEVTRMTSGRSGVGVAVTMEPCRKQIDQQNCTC

[4] = target: Kelch-like ECH-associated protein 1 (Homo sapiens) (UniProt Q14145); assay: Binding affinity to wild-type human N-terminal His6-tagged Keap1 (35 to 178 residues) expressed in baculovirus infected Sf9 insect cells assessed as cysteine-compound adduct formation at 15-fold molar excess measured after 1 hr by RP-LC/MS/MS analysis
Sequence of Kelch-like ECH-associated protein 1 (Homo sapiens) (Q14145 whole entry, the tested form may be a part): as the sequence (Q14145 whole entry C151S, the tested form may be a part) above, with S151C counted along it

[5] = Binding affinity to FLAG/His-tagged Keap1 (unknown origin)/biotinylated full-length FLAG/His/Tev/Avi-tagged Cul3 (unknown origin) expressed in baculovirus infected Sf9 insect cells measured after 1 hr by TR-FRET assay; set-up: species or system Homo sapiens
Keap1/Nrf2 = Keap1/Nrf2 (Homo sapiens, UniProt Q14145+Q16236); assay: Binding affinity to FLAG/His-tagged Keap1 (unknown origin)/biotinylated full-length FLAG/His/Tev/Avi-tagged NRF2 (unknown origin) expressed in baculovirus infected Sf9 insect cells measured after 1 hr by TR-FRET assay
Sequence of Keap1/Nrf2 (Q16236 whole entry): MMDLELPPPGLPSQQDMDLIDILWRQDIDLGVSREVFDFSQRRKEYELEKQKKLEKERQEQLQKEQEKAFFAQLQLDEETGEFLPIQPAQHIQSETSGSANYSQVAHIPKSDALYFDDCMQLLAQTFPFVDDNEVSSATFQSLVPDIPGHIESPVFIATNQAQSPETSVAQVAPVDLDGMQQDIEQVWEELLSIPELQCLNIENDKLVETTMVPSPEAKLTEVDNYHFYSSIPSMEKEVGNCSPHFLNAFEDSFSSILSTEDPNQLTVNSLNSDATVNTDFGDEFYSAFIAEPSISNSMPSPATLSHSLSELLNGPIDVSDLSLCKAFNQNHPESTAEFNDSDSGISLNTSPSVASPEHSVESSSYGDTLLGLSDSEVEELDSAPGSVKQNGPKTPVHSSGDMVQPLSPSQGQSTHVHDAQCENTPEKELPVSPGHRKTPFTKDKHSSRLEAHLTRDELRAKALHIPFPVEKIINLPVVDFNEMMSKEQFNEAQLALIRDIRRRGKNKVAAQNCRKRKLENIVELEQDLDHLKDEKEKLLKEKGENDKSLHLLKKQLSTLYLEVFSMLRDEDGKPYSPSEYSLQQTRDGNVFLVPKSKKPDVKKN
Sequence of Keap1/Nrf2 (Q14145 whole entry): as the sequence (Q14145 whole entry C151S, the tested form may be a part) above, with S151C counted along it

Homo sapiens [6] = species: Homo sapiens; assay: Activation of Keap1/Cul3/Nrf2 in NHBE cells assessed as induction of HO-1 gene expression at 10 uM after 24 hrs by RT-PCR analysis relative to SFN; assay type: cell-based
[7] = Lipophilicity, log D of the compound at pH 7.4 by chromatographic method; assay type: physicochemical; details: buffer
[8] = Drug metabolism in rat assessed as (2R)-2-acetamido-3-[3-[[2-(dimethylamino)-3,4-dioxo-cyclobuten-1-yl]-methyl-amino]propylcarbamothioylsulfanyl]propanoic acid formation at 2 mg/kg, po; assay type: ADME, organism-based; details: in vivo
[9] = Apparent permeability across apical to basolateral side in MDCK-MDR1; assay type: ADME, cell-based, Canis lupus familiaris; details: dog
Homo sapiens [10] = species: Homo sapiens; assay: as §1; assay type: cell-based
[11] = Stability of the compound at 23 degC using crystalline solid sample measured >3 years by 1H-NMR analysis; assay type: physicochemical
Mus musculus [12] = assay: (§2) Antioxidant activity in C57BL/6J mouse model of cigarette smoking-induced oxidative stress assessed as inhibition of total cell infiltration at 0.1 to 100 umol/kg, po dosed 24 hrs prior to cigarette smoking followed by qd dosing with cigarette smoking for 3 days by Wright-Giemsa staining based hemocytometry; assay type: functional, organism-based
Mus musculus [13] = assay: Antioxidant activity in po dosed C57BL/6J mouse model of cigarette smoking-induced oxidative stress assessed as inhibition of neutrophil infiltration dosed 24 hrs prior to cigarette smoking followed by qd dosing with cigarette smoking for 3 days by Wright-Giemsa staining based hemocytometry; assay type: functional, organism-based
[14] = Apparent permeability across basolateral to apical side in MDCK-MDR1; assay type: ADME, cell-based, Canis lupus familiaris; details: dog
[15] = Solubility of the compound in FaSSIF at pH 6.5 using solid sample; assay type: physicochemical
Mus musculus [16] = assay: as §2, with “mononuclear” for “total”; assay type: functional, organism-based
Mus musculus [17] = assay: as §2, with “neutrophil” for “total cell”; assay type: functional, organism-based
[18] = Drug metabolism in rat assessed as (2S)-2-amino-5-[[(1R)-2-(carboxymethylamino)-1-[3-[[2-(dimethylamino)-3,4-dioxo-cyclobuten-1-yl]-methyl-amino]propylcarbamothioylsulfanylmethyl]-2-oxo-ethyl]amino]-5-oxo-pentanoic acid formation at 2 mg/kg, po; assay type: ADME, organism-based; details: in vivo
[19] = Stability of the compound at 23 degC using crystalline solid sample measured >3 years by LC/MS analysis; assay type: physicochemical

Sequence of BACH1/MafK (O60675 whole entry, the tested form may be a part): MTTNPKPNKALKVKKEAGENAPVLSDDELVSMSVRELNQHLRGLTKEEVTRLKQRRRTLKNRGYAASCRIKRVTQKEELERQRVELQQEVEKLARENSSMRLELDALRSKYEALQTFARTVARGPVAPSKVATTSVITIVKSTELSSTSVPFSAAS
Sequence of BACH1/MafK (O14867 whole entry, the tested form may be a part): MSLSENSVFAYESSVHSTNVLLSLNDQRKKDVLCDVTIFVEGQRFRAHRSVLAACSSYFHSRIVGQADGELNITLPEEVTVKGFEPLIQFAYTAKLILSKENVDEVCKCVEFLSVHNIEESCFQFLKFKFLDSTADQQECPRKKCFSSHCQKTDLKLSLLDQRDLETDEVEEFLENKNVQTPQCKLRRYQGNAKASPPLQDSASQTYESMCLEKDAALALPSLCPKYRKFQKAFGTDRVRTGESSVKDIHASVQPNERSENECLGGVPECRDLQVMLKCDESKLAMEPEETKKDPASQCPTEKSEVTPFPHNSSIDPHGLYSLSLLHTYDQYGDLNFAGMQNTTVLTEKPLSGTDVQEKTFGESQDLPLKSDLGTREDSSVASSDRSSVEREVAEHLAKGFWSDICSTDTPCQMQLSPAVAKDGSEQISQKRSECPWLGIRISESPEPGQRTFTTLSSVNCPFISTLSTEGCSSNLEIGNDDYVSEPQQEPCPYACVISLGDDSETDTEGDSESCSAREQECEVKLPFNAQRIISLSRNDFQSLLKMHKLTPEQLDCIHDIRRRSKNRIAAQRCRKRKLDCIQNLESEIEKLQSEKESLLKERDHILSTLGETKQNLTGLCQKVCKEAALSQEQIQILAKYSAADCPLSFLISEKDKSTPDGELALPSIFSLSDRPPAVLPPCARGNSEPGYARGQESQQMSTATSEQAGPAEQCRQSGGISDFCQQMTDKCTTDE

C[S+]([O-])CCCCN=C=S (racemic) [SULFORAPHANE]
IC50 (BACH1/MafK): 15.8 µM | EC50 [1]: 1580 to 2090 nM | solubility kinetic [2]: 271 µM (≈ 48 µg/mL) | Activity [3]: Active | Activity [4]: Active | pIC50 [5]: < 4

C[S+]([O-])CCCCNC(=S)SC[C@H](NC(=O)CC[C@H](N)C(=O)O)C(=O)NCC(=O)O (some centres undefined)
IC50 (Keap1/Nrf2): > 100 µM | EC50 [1]: 1580 nM | solubility kinetic [2]: ≥ 290 µM | fold change (FC) (Homo sapiens [6]): 5.8 | pIC50 [5]: < 4 | chromatographic logD [7]: -0.75

CC(=O)N[C@@H](CSC(=S)NCCCC[S+](C)[O-])C(=O)O (some centres undefined)
IC50 (Keap1/Nrf2): > 100 µM | EC50 [1]: 1580 nM | solubility kinetic [2]: ≥ 357 µM | fold change (FC) (Homo sapiens [6]): 5.8 | pIC50 [5]: < 4 | chromatographic logD [7]: -0.67

CN(C)c1c(N(C)CCCN=C=S)c(=O)c1=O
IC50 (Keap1/Nrf2): > 100 µM | Drug metabolism [8]: Metabolite_Detected | IC50 (BACH1/MafK): 3.16 µM | Papp A→B [9]: 12.5 ×10⁻⁶ cm/s | EC50 [1]: 1580 to 1660 nM | Activity (Homo sapiens [10]): Dose-dependent effect | Stability [11]: Stable | inhibition (Mus musculus [12]): Active | solubility kinetic [2]: ≥ 394 µM | fold change (FC) (Homo sapiens [6]): 24.9 to 25 | inhibition (Mus musculus [13]): Dose-dependent effect | Papp B→A [14]: 7.67 ×10⁻⁶ cm/s | Activity [3]: Active | solubility thermodynamic [15]: 8000 µg/mL (≈ 31.6 mM) | inhibition (Mus musculus [16]): Active | Activity [4]: Active | inhibition (Mus musculus [17]): Active | pIC50 [5]: 4.3 | Drug metabolism [18]: Metabolite_Detected | Stability [19]: Stable | chromatographic logD [7]: 2.14 to 2.39
